For data set [1] the following is noted: safety index of 100 times, cited from earlier work.
For data set [2] the following is noted: printed as negative log P; cited from earlier work.
In data set [3] the test system is sick people. In words: Application of the cream on sick people. Conditions: in vivo. The procedure: In the numerous tests that were carried out on sick people, it has been observed that the introduction of a correct concentration of polyphenols (with “correct” being understood as the fact that there are 200 mg of the polyphenol in each 5 g application of pharmaceutical composition) in a solution for topical use (preferably a cream) has very beneficial effects in treating at least the following pathologies: subcutaneous inflammations such as fasciitis and fasciosis, tendon inflammation or irritation (tendonitis), carpal tunnel inflammation, varicose vein reduction, joint inflammation and blows and bruises.

With `CCOCCOCCO` [transcutol, 2-(2-Ethoxyethoxy) ethanol], the “recommended limit via the dermal route” value in data set [1] (dermal route) was 20 mg/kg. In data set [1] (oral route), the “recommended limit via the oral route” value is 10 mg/kg. The “log P” value in data set [2] is ~0.5.

For the molecule `C[C@@H]1O[C@@H](OC[C@H]2O[C@@H](Oc3c(-c4ccc(O)c(O)c4)oc4cc(O)cc(O)c4c3=O)[C@H](O)[C@@H](O)[C@@H]2O)[C@H](O)[C@H](O)[C@H]1O` [rutin], in data set [3], the “crossing of the blood-brain barrier” value was “able to cross the blood-brain barrier”.

The values above are taken from patent publication US20240269291A1, “Transcutol-Polyol-Active Agent Ternary Complex, Pharmaceutical Composition for Topical Use Comprising Same, Method for Obtaining Same and Use Thereof in Different Pathologies” (FUNDACIÓN GAIKER, priority 2021, published 2024).
